Assay results taken from patent US12091406B2, “Lysine acetyltransferase 6A (KAT6A) inhibitors and uses thereof” (Insilico Medicine IP Limited, priority 2021, dated 2024).

What was measured:
[1] = Kinetic solubility in 50 mM phosphate buffer (pH 7.4); format: physicochemical; settings: comparison in words, data of Table 3
Procedure: 10 μL of 10 mM in DMSO of test and control compounds was added into lower chambers of whatman miniuniprep vials, respectively. 490 μL of 50 mM PB (pH 7.4) was added into lower chambers of the whatman miniuniprep vials, respectively. The solubility samples were vortexted for at least 2 minutes. The miniuniprep vials were shaken on a shaker for 24 hours at room temperature at the speed of 800 rpm and then centrifuged for 20 minutes (eg. 4000 rpm). The miniunipreps were compressed to prepare the filtrates for injection into HPLC system to calculate the concentration with standard curve.

Caco-2 cells = experiment: Permeability in Caco-2 Assay; format: in vitro ADME; settings: comparison in words, data of Table 4
Procedure: Permeability of test compounds was determined in Caco-2 Assay. Caco-2 cells purchased from ATCC were seeded onto […] (PET) in 96-well Corning Insert plates at 1×10^5 cells/cm2, and refreshed medium every 4˜5 days until to the 21st to 28th day for confluent cell monolayer formation. The transport buffer in the study was HBSS with 10.0 mM HEPES at pH 7.40±0.05. Test compound was tested at 2.00 μM bi-directionally in duplicate. Digoxin was tested at 10.0 μM bi-directionally in duplicate, while nadolol and metoprolol were tested at 2.00 μM in A to B direction in duplicate. Final DMSO concentration was adjusted to less than 1%. The plate was incubated for 2 hours in CO2 incubator at 37±1° C., with 5% CO2 at saturated humidity without shaking. And all samples after mixed with acetonitrile containing internal standard were centrifuged at 3200×g for 10 min. For nadolol and metoprolol, 200 μL supernatant solution was diluted with 600 μL ultra-pure water for LC-MS/MS analysis. For digoxin and test compounds, 200 μL supernatant solution was diluted with 200 μL ultra-pure water for LC-MS/MS analysis. Concentrations of test and control compounds in starting solution, donor solution, and receiver solution were quantified by LC-MS/MS methodologies, using peak area ratio of analyte/internal standard. […]

Structure (SMILES): COc1cccc(OC)c1S(=O)(=O)Nc1noc2cc(Oc3nccs3)c3c(c12)OCCC3 [Compound 35, 2,6-dimethoxy-N-(5-(thiazol-2-yloxy)-3,4-dihydro-2H-chromeno[8,7-d]isoxazol-9-yl)benzenesulfonamide]
- kinetic solubility compared with otherwise identical compound having X as carbon [1]: improved kinetic solubility
- permeability compared with reference compound (Caco-2 cells): improved permeability
